In patent US20090012170A1, “TREATMENT OF SYMPTOMS OF MOTOR DYSFUNCTION” (priority 2005, published 2009):

Tested on: PD patients
Assay: Pooled analysis of three double blind, placebo-controlled studies and their open-label extensions: earlier vs. delayed start of entacapone adjunct to levodopa/DDC inhibitor
Format: in vivo, human
Experimental: A study was carried out to evaluate the effect of earlier vs. delayed start of entacapone adjunct to traditional levodopa/DDC inhibitor treatment on the long-term Parkinson's disease symptom control up to 5 years.
Analysis of pooled data of three pivotal double blind, placebo-controlled studies, and their respective long-term open-label extension studies up to 5 years on entacapone adjunct to optimised levodopa/DDC inhibitor and other PD treatment.
A total of 488 PD patients, of whom 269 were on entacapone and 219 on placebo during the 6-month double blind phase, continued with open entacapone treatment in the long-term extension phases up to 5 years. UPDRS III assessment and the mean daily levodopa dose were reported until the point when a minimum of 10 patients in each treatment arm was available, i.e. up to five years.

Compound: CCN(CC)C(=O)/C(C#N)=C/c1cc(O)c(O)c([N+](=O)[O-])c1 [entacapone, (E)-2-cyano-3-(3,4-dihydroxy-5-nitrophenyl)-N-diethyl-2 propenamide]
- decrease of mean daily levodopa dose after initiation of open entacapone (delayed start group, comparable with the decrease in the earlier start group at the beginning of the double-blind phase, thereafter below baseline in both groups): about 70 mg
- mean difference in UPDRS III over time between the earlier and delayed start treatment groups (entacapone adjunct to levodopa/DDC inhibitor, earlier vs 6 months delayed start, up to 5 years, 95%CI [−3.01, −0.31], repeated measures analysis, p<0.05): −1.66
